From US9011988B2, “Liquid-crystal compound, liquid-crystal composition, light absorption anisotropic film, and liquid-crystal display device” (Fujifilm Corporation, priority 2010, dated 2015)

Key:
Assay type in all cases: physicochemical
[1] = Maximum absorption wavelength of the dye in N-methylpyrrolidone (UV-2550 spectrophotometer); conditions: for λmax: in N-methylpyrrolidone solvent
Experimental: <Maximum Absorption Wavelength>
The maximum absorption wavelength of the dye in N-methylpyrrolidone solvent was measured with a UV-2550 spectrophotometer (made by Shimadzu Corp.).

[2] = Light resistance of light absorption anisotropic film (change in intensity of absorption)
Experimental: While being heated from room temperature to 200° C., each of the light absorption anisotropic films that had been prepared was irradiated with 10 mW of light and the light resistance was determined based on the change in the intensity of absorption.

[3] = Phase transition temperature by DSC thermal analysis and polarizing microscope observation
Experimental: <Phase Transition Temperature>
The phase transition temperature was determined by thermal analysis with a DSC measurement apparatus (made by Seiko Instruments) and by visual observation with a polarizing microscope.

[4] = Solubility in chloroform / preparation of chloroform coating liquid
Experimental: The solubility of these compounds in chloroform was measured.
Following stirring and dissolution, a liquid-crystal composition coating liquid was obtained. Each of the coating liquids was then coated on an alignment film that had been formed on a glass substrate and had been rubbed. Subsequently, the chloroform was allowed to dry naturally at room temperature, yielding individual light absorption anisotropic films. The polyvinylalcohol indicated below was employed as the alignment film.

[5] = light absorption anisotropic film irradiated with 10 mW of light while heated from room temperature to 200° C., change in intensity of absorption

Row | SMILES | λmax [1] | Light resistance [2, 5] | other results
1 | CCCCCCOc1ccc(N=Nc2ccc(C=Cc3cc(OCCOCCOCCOC)c(C=Cc4ccc(N=Nc5ccc(OCCCCCC)cc5)cc4)cc3OC)cc2)cc1 [A-3] | 463.3 nm | Good | 
2 | CCCCCCOc1ccc(N=Nc2ccc(C=Cc3cc(OCCOCCOCCO)c(C=Cc4ccc(N=Nc5ccc(OCCCCCC)cc5)cc4)cc3OC)cc2)cc1 [A-4] | 463.8 nm | Good | 
3 | CCCCCCCCCCCCCCCCCCOc1cc(C=Cc2ccc(N=Nc3ccc(OCCCCCC)cc3)cc2)c(OC)cc1C=Cc1ccc(N=Nc2ccc(OCCCCCC)cc2)cc1 [A-9] | 460.0 nm | Good | 
4 | CCCCCCOc1ccc(N=Nc2ccc(C=Cc3cc(OCCOCCOCCOC)c(C=Cc4ccc(N=Nc5ccc(OCCCCCC)cc5)cc4)cc3OCCOCCOCCOC)cc2)cc1 [A-10] | 457.5 nm | Good | 
5 | CCCCCCOc1ccc(N=Nc2ccc(C=Cc3cc(OC)c(C=Cc4ccc(N=Nc5ccc(OCCCCCC)cc5)cc4)cc3OC)cc2)cc1 [A-34] | 463.4 nm |  | temperature range in which nematic liquid crystallinity was confirmed [3]: ≥ 247 °C
6 | CCCCc1ccc(N=Nc2ccc(N=Nc3ccc(N=Nc4ccc(N=Nc5ccc(N=Nc6ccc(CCCC)cc6)cc5)cc4C)c(C)c3)cc2)cc1 [Comparative Compound 1] |  |  | preparation of coating liquid ([4]; 1 weight part compound in 99 weight parts of chloroform): precluding preparation of a coating liquid; solubility in chloroform (in words) [4]: almost no solubility; temperature range in which nematic liquid crystallinity was confirmed [3]: ≥ 220 °C
7 | CCCCCCOc1ccc(/C=C/c2ccc(/C=C/c3cc(OCCOCCOCCOCCOCCOCCO)c(/C=C/c4ccc(/C=C/c5ccc(OCCCCCC)cc5)cc4)cc3OC)cc2)cc1 [Comparative Compound 2, reference compound] |  | Poor | original absorption wavelength [1]: 432.5 nm; Light resistance ([2]; film heated from room temperature to 200° C., irradiated with 10 mW of light): poor light resistance; solubility in chloroform (in words) [4]: good solubility
